These results are taken from patent publication US8586782B2, “Phenylacetic acid derivatives” (Novartis AG, priority 2006, dated 2013).

Test [1] concerns the target T1, COX-2 (Homo sapiens, UniProt P35354).
T1 construct: COX-2 expression is induced in mononuclear cells by treatment with lipopolysaccharide (LPS); endogenous in cells; host or cells: heparinized human whole blood (mononuclear cells, LPS-induced)
T1 sequence (P35354 18-604): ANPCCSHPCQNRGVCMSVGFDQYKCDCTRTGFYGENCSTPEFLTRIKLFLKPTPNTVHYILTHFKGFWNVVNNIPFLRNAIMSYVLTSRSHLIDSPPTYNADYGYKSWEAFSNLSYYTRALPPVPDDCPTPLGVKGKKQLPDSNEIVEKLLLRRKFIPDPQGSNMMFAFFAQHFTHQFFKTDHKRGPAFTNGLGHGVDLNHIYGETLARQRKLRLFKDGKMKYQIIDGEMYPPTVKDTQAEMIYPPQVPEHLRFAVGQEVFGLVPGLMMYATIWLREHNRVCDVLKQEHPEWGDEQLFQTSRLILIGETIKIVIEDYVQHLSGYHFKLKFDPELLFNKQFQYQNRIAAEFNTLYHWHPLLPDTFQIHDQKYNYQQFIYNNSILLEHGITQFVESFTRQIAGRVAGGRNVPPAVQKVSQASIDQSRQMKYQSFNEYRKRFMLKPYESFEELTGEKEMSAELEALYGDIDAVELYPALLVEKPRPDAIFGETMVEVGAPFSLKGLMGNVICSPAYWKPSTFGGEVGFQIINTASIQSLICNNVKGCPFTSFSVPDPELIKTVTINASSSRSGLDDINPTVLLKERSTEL
Kind of test: COX-2 inhibition in human whole blood (LPS-induced PGE2 production). Format: cell-based. Particulars: PGE2 after LPS 10 μg/mL overnight, average where more than one assay, read-out: COX-2_Blood IC50 [μM] (Avg). The protocol:
(§1) In vitro COX-1 and COX-2 inhibition is also determined in human whole blood where COX-1 is constitutively expressed in platelets and COX-2 expression is induced in mononuclear cells by treatment with lipopolysaccharide (LPS) (10 μg/mL). For this assay heparinized human blood is divided into two aliquots: one for measuring TxB2 production (a surrogate indicator of COX-1 activity) and a second for measuring PGE2 production (a surrogate for COX-2 activity). The blood samples are pretreated with test compounds for one hour before stimulation. Compounds are tested in a final concentration range from 0.1 nM to 300 μM using half log increases in concentrations. To measure inhibition of thromboxane B2 (TxB2) generation, A23187 (50 μM) is added, and the blood incubated for one hour. PGE2 production is measured after the addition of LPS (10 μg/mL) followed by overnight incubation. After incubation with A23187 or LPS the samples are centrifuged at 250×g for 10 minutes at 4° C. to collect serum. The amounts PGE2 and TxB2 present in the serum are measured using a chemiluminesence enzyme immunoassay from Assay Designs Inc. (Ann Arbor, Mich.). The levels of prostaglandin in each sample are normalized to the percent inhibition caused by each concentration of the test compound. The percent inhibition data for each donor is pooled and fitted to a 4-parameter logistic function using a regression.

Test [2] addresses T2, COX-1 (Homo sapiens, UniProt P23219).
T2 construct: COX-1 is constitutively expressed in platelets; endogenous in cells; host or cells: heparinized human whole blood (platelets, A23187-stimulated)
Nature of the test: COX-1 inhibition in human whole blood (A23187-stimulated TxB2 production). Format: cell-based. Particulars: TxB2 after A23187 50 μM 1 h, average where more than one assay, read-out: COX-1_Blood IC50 [μM] (Avg). On the procedure: as §1

The term IC50 denotes the concentration that inhibits the measured activity by half.

T2 sequence (P23219 24-599): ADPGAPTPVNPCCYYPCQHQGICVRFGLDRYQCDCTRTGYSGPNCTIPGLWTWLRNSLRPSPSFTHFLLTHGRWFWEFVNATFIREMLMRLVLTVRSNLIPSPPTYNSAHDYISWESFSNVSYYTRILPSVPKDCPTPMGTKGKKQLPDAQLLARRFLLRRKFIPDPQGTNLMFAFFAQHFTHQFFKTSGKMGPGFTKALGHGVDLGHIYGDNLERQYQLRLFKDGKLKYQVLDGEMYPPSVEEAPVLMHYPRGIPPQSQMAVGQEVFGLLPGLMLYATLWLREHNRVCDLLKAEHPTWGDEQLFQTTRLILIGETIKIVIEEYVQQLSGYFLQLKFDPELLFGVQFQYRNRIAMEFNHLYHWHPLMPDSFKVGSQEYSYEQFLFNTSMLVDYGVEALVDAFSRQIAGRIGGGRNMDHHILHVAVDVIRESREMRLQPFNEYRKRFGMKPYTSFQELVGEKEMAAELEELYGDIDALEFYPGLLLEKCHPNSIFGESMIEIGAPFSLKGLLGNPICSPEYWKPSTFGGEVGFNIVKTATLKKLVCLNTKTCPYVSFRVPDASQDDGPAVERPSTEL

As for `CCc1ccc(Nc2ccc(C)c(C(F)(F)F)c2F)c(CC(=O)O)c1` [Example 5a, 5-Ethyl-2-(2′-fluoro-4′-methyl-3′-trifluoromethylanilino)phenylacetic acid], the results for the IC50 in test [1] and in test [2] were 0.1 µM and 155 µM, respectively.
With `CCc1c(Cl)ccc(Nc2ccc(C)cc2CC(=O)O)c1F` [Example 5k, 5-Methyl-2-(2′-fluoro-4′-chloro-3′-ethylanilino)phenylacetic acid], the concentration for half-maximal inhibition (IC50) was 0.165 µM in test [1] and 183 µM in test [2].
Consider `Cc1ccc(Nc2ccc(Cl)c(C)c2Cl)c(CC(=O)O)c1` [Example 5e, 5-Methyl-2-(2′,4′-dichloro-3′-methylanilino)phenylacetic acid], for which the 50% inhibitory concentration (IC50) in test [1] came out at 0.073 µM; in test [2], 126 µM.
Turning to `CCc1ccc(Nc2ccc(Cl)c(C(C)C)c2F)c(CC(=O)O)c1` [Example 5m, 5-Ethyl-2-(2′-fluoro-4′-chloro-3′-isopropylanilino)phenylacetic acid], the IC50 was 0.17 µM in test [1] and 127 µM in test [2].
Regarding `Cc1ccc(Nc2ccc(Cl)c(C)c2F)c(CC(=O)O)c1` [Example 5i, 5-Methyl-2-(2′-fluoro-4′-chloro-3′-methylanilino)phenylacetic acid], the IC50 in test [1] came out at 0.295 µM; in test [2], 129 µM.
